Ki, IC90 and IC50 data for 16 compounds are collected here from patent US10695334B2, “Heteroaromatic carboxamide derivatives as plasma kallikrein inhibitors” (Boehringer Ingelheim International GmbH, priority 2018, dated 2020).

Molecules are shown by their SMILES.

Type in all cases: biochemical
The target in assay [1] is T1, Human PKK (Homo sapiens (Human), UniProt P03952). The assay is described as follows: Inhibition of PKK (Ki), kinetic assay. Conditions: 24° C., IC50 corrected for KM. The method, then: Measurements were performed in a kinetic interval every 2nd minute for 16 min using a Spectramax M5 (Molecular Devices) with the following settings of the wavelength excitation of 350 nm and wavelength emission of 450 nm. The number of the compound corresponds to the number of the Example in the experimental section.
T1 sequence (P03952 391-638): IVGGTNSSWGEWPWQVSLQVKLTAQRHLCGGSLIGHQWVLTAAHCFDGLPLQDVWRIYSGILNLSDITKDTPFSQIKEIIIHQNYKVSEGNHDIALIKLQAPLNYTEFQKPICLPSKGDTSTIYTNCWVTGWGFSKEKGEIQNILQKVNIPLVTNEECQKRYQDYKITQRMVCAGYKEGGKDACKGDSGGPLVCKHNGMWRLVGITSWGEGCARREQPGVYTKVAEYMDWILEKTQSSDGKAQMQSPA
T1 sequence (P03952 20-390 partner): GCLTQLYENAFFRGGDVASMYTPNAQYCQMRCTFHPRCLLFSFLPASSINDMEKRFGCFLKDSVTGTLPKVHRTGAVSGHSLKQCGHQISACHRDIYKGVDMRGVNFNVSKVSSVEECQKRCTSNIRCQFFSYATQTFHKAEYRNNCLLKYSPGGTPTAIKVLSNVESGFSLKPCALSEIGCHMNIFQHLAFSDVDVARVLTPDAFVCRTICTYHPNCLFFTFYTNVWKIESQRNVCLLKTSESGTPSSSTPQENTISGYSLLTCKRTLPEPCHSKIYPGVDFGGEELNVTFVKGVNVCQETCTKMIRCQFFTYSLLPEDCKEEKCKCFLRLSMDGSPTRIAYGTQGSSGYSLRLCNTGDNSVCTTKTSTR
The pIC50 values were then fitted using a four-parametric fitting procedure using GraphPad Prism (version 6; GraphPad Software, Inc.).
Where the IC50 is in molar and the KM value in mM.

The target of assay [2] is PKK in kaolin activated human platelet poor plasma (Homo sapiens (Human), UniProt P03952). The assay is described as follows: Inhibition of PKK in kaolin activated human PPP. The conditions noted are these: global fit over 25, 75, 250, 750 μg/mL kaolin. The method, then:
Platelet poor plasma (PPP) obtained from human wholeblood, anticoagulated with Na-Citrat, was incubated with various concentrations of the test compound together with either 25, 75, 250, or 750 μg/mL kaolin in assay buffer for 20 min at 37° C. such that for each kaolin dose used a concentration response was obtained for the test compound.

Another assay has as its target human TK1 (Homo sapiens (Human), UniProt P06870). Put plainly: Inhibition of TK1 (Ki). Conditions: column head prints IC50, text above the table says Ki values. The method in brief: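 Trypsin-activated human TK1 (31.25 nM or 1 U/mL) incubated at 24 °C with 0.1 mM H-Pro-Phe-Arg-AMC and compound in pH 7.8 Tris/NaCl buffer with 0.1% BSA, 1% DMSO; fluorescence read kinetically over 16 min. IC50 from Vmax (2-12 min) four-parameter fit, converted to Ki using substrate KM.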

The target of assay [3] is T1, Human PKK. Put plainly: Inhibition of PKK, endpoint assay (human PKK). The conditions noted are these: substrate H-Pro-Phe-Arg-AMC, 1 h room temperature. The method, then: Subsequently, PPACK II (Calbiochem) was added as a stop solution to achieve a final concentration of 1 μM and fluorescence was measured using an Envision Reader (PerkinElmer) with the wavelength excitation setting of 355 nm and the wavelength emission setting of 460 nm.

Sequence of human TK1 (P06870 25-262): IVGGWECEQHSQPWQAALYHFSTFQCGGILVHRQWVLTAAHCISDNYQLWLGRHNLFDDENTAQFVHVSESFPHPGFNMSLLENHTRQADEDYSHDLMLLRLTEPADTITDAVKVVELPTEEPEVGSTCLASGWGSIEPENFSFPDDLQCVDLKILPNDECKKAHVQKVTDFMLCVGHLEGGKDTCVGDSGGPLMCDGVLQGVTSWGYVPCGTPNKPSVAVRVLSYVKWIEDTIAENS
Sequence of PKK in kaolin activated human platelet poor plasma (P03952 391-638): as the sequence (P03952 391-638) above
Sequence of PKK in kaolin activated human platelet poor plasma (P03952 20-390 partner): as the sequence (P03952 20-390 partner) above

What is called Ki is the dissociation constant of the complex between target and ligand, obtained from inhibition or displacement. High values mean weaker binding, low ones tighter binding. As usually defined, the IC90 is the concentration at which the effect reaches the 90% level. The term IC50 denotes the concentration needed to halve the response being measured. A lower IC50 goes with inhibition by little substance. At Human PKK [1], `Cc1nc(N2CC3CC3C2)ccc1Cn1cc(C(=O)N[C@@H]2CCc3c(C)n[nH]c32)cn1` (stereo partly drawn) [Example 3, 1-[(6-{3-Azabicyclo[3.1.0]hexan-3-yl}-2-methylpyridin-3-yl)methyl]-N-[(6R)-3-methyl-1H,4H,5H,6H-cyclopenta[c]pyrazol-6-yl]-1H-pyrazole-4-carboxamide] registered a Ki of 0.5 nM. Further, in assay [2], the IC90 was 679 nM. In addition, the IC50 at human TK1 was over 10000 nM; on Human PKK [3], 0.8 nM.
`Cc1nc(N2C[C@@H]3[C@H](CO)[C@@H]3C2)ccc1Cn1cnc(C(=O)N[C@@H]2CCc3c2n[nH]c3C)c1` (stereo in doubt) [Example 99, 1-({6-[(1R,5S,6S)-6-(Hydroxymethyl)-3-aza-bicyclo[3.1.0]hexan-3-yl]-2-methylpyridin-3-yl}-methyl)-N-[(6R)-3-methyl-2H,4H,5H,6H-cyclo-penta[c]pyrazol-6-yl]-1H-imidazole-4-carboxamide] registered a Ki at Human PKK [1] of 1 nM. Further, the IC90 in assay [2] came to 388 nM. Further, the figures for the half-maximal inhibitory concentration (IC50) against human TK1 and on Human PKK [3] were over 10000 nM and 1 nM, respectively.
On Human PKK [1], `Cc1nc(N2CCC(C(F)F)C2)ccc1Cn1cc(C(=O)N[C@@H]2CCc3c2n[nH]c3C)cn1` (stereo partly drawn) [Example 46, 1-({6-[3-(Difluoromethyl)pyrrolidin-1-yl]-2-methylpyridin-3-yl}methyl)-N-[(6R)-3-methyl-2H,4H,5H,6H-cyclopenta[c]pyrazol-6-yl]-1H-pyrazole-4-carboxamide] yielded a Ki of 1 nM. The IC90 in assay [2] worked out at 2840 nM. The figures for the IC50 against human TK1 and against Human PKK [3] were over 10000 nM and 4 nM, respectively.
On Human PKK [1], `Cc1nc(N2CC3CC3C2)ccc1Cc1cc(C(=O)N[C@@H]2CCc3c(C)n[nH]c32)sc1C#N` (stereo partly drawn) [Example 8, 4-[(6-{3-Azabicyclo[3.1.0]hexan-3-yl}-2-methylpyridin-3-yl)methyl]-5-cyano-N-[(6R)-3-methyl-1H,4H,5H,6H-cyclopenta[c]pyrazol-6-yl]thiophene-2-carboxamide] gave a Ki of 3 nM. Further, in assay [2], the IC90 turned out to be 1820 nM. For the same compound, the figures for the IC50 on human TK1 and against Human PKK [3] were over 10000 nM and 4 nM, respectively.
For `Cc1nc(N2CC(C)(F)C2)ccc1Cn1cc(C(=O)N[C@@H]2CCc3c2n[nH]c3C)cn1` [Example 77, 1-{[6-(3-Fluoro-3-methylazetidin-1-yl)-2-methylpyridin-3-yl]methyl}-N-[(6R)-3-methyl-2H,4H,5H,6H-cyclopenta[c]pyrazol-6-yl]-1H-pyrazole-4-carboxamide], in that order: 4 nM, 1110 nM, over 10000 nM and 5 nM.
`Cc1nc(N2CC3C(C2)C3(F)F)ccc1Cn1cc(C(=O)N[C@@H]2CCc3c(C)n[nH]c32)cn1` (stereo partly drawn) [Example 5, 1-[(6-{6,6-Difluoro-3-azabicyclo[3.1.0]hexan-3-yl}-2-methylpyridin-3-yl)methyl]-N-[(6R)-3-methyl-1H,4H,5H,6H-cyclopenta[c]pyrazol-6-yl]-1H-pyrazole-4-carboxamide] registered a Ki at Human PKK [1] of 0.3 nM. Also, the IC90 in assay [2] was found to be 241 nM. Moreover, the IC50 at human TK1 was over 10000 nM; at Human PKK [3] it was 0.6 nM.
For the compound `Cc1nc(N2CCC(C)(C#N)C2)ccc1Cn1cc(C(=O)N[C@@H]2CCc3c2n[nH]c3C)cn1` (stereo partly drawn) [Example 71, 1-{[6-(3-Cyano-3-methylpyrrolidin-1-yl)-2-methylpyridin-3-yl]methyl}-N-[(6R)-3-methyl-2H,4H,5H,6H-cyclopenta[c]pyrazol-6-yl]-1H-pyrazole-4-carboxamide], on Human PKK [1], affinity was put at a Ki of 1 nM. Further, the IC90 in assay [2] was found to be 708 nM. In addition, the IC50 is over 10000 nM on human TK1 and 2 nM against Human PKK [3].
In turn, `Cc1nc(N2CC3CC3C2)ccc1Cn1cc(C(=O)N[C@@H]2CCc3c2n[nH]c3C)nc1C1CC1` (stereo partly drawn) [Example 96, 1-[(6-{3-Azabicyclo[3.1.0]hexan-3-yl}-2-methyl-pyridin-3-yl)methyl]-2-cyclopropyl-N-[(6R)-3-methyl-2H,4H,5H,6H-cyclopenta[c]pyrazol-6-yl]-1H-imidazole-4-carboxamide] returned a Ki on Human PKK [1] of 1 nM. Besides, in assay [2], the IC90 was 781 nM. For the same compound, the values for the IC50 against human TK1 and at Human PKK [3] were over 10000 nM and 2 nM, respectively.
The compound `Cc1nc(N2CC3CC3C2)ccc1Cn1cc(C(=O)N[C@@H]2CCc3c2n[nH]c3C)c2cc(C(=O)O)ccc21` (stereo partly drawn) [Example 108, 1-[(6-{3-Azabicyclo[3.1.0]hexan-3-yl}-2-methylpyridin-3-yl)methyl]-3-{[(6R)-3-methyl-2H,4H,5H,6H-cyclopenta[c]pyrazol-6-yl]carbamoyl}-1H-indole-5-carboxylic acid] had a Ki on Human PKK [1] of 6 nM. Besides, in assay [2], the IC90 turned out to be 776 nM. Further, the IC50 against human TK1 is over 10000 nM; against Human PKK [3] it was 1 nM.
For `Cc1[nH]nc2c1CC[C@H]2NC(=O)c1cn(Cc2ccc(N3CC4CC4C3)nc2)cn1` (stereo partly drawn) [Example 103, 1-[(6-{3-Azabicyclo[3.1.0]hexan-3-yl}pyridin-3-yl)-methyl]-N-[(6R)-3-methyl-2H,4H,5H,6H-cyclo-penta[c]pyrazol-6-yl]-1H-imidazole-4-carboxamide] the same measures were 3 nM, 416 nM, over 10000 nM and 2 nM.
On Human PKK [1], `Cc1nc(N2CC3CC3C2)ccc1Cn1cc(C(=O)N[C@@H]2CCc3c2n[nH]c3C)nc1C(F)(F)F` (stereo partly drawn) [Example 98, 1-[(6-{3-Azabicyclo[3.1.0]hexan-3-yl}-2-methyl-pyridin-3-yl)methyl]-N-[(6R)-3-methyl-2H,4H,5H,6H-cyclopenta[c]pyrazol-6-yl]-2-(trifluoromethyl)-1H-imidazole-4-carboxamide] showed a Ki of 6 nM. For the same compound, the IC90 in assay [2] amounted to 3140 nM. In addition, the IC50 against human TK1 is over 10000 nM; on Human PKK [3], 5 nM.
Consider `Cc1nc(N2C[C@@H]3[C@H](C)[C@@H]3C2)ccc1Cn1cnc(C(=O)N[C@@H]2CCc3c2n[nH]c3C)c1` [Example 100, N-[(6R)-3-Methyl-2H,4H,5H,6H-cyclopenta[c]-pyrazol-6-yl]-1-({2-methyl-6-[(1R,5S,6R)-6-methyl-3-azabicyclo[3.1.0]hexan-3-yl]pyridin-3-yl}methyl)-1H-imidazole-4-carboxamide], for which, on Human PKK [1], the Ki came out at 0.8 nM. In assay [2], the IC90 worked out at 303 nM. Besides, the IC50 against human TK1 is over 10000 nM; at Human PKK [3], 0.4 nM.
On Human PKK [1], `Cc1nc(N2CCCC2)ccc1Cn1cc(C(=O)N[C@@H]2CCc3c2n[nH]c3C)cn1` [Example 52, N-[(6R)-3-Methyl-2H,4H,5H,6H-cyclopenta[c]pyrazol-6-yl]-1-{[2-methyl-6-(pyrrolidin-1-yl)pyridin-3-yl]methyl}-1H-pyrazole-4-carboxamide] came in with a Ki of 1 nM. Moreover, the IC90 in assay [2] amounted to 5120 nM. For the same compound, the results for the IC50 against human TK1 and against Human PKK [3] were over 10000 nM and 4 nM, respectively.
For `Cc1nc(N2CC3CC3C2)ccc1Cn1nnc(C(=O)N[C@@H]2CCc3c(C)n[nH]c32)n1` (stereo partly drawn) [Example 9, 2-[(6-{3-Azabicyclo[3.1.0]hexan-3-yl}-2-methylpyridin-3-yl)methyl]-N-[(6R)-3-methyl-1H,4H,5H,6H-cyclopenta[c]pyrazol-6-yl]-2H-1,2,3,4-tetrazole-5-carboxamide], in that order: 5 nM, 3480 nM, over 10000 nM and 7 nM.
`Cc1nc(N2CC3CC3C2)ccc1Cn1cc(C(=O)N[C@@H]2CCc3c(C)n[nH]c32)c(Cl)n1` (stereo partly drawn) [Example 12, 1-[(6-{3-Azabicyclo[3.1.0]hexan-3-yl}-2-methylpyridin-3-yl)methyl]-3-chloro-N-[(6R)-3-methyl-1H,4H,5H,6H-cyclopenta[c]pyrazol-6-yl]-1H-pyrazole-4-carboxamide] registered a Ki on Human PKK [1] of 2 nM. Also, in assay [2], the IC90 is 3090 nM. In addition, the IC50 against human TK1 is over 10000 nM; on Human PKK [3], 1 nM.
For the compound `Cc1nc(N2CC3CC3C2)ccc1Cc1c[nH]c(C(=O)N[C@@H]2CCc3c(C)n[nH]c32)c1` (stereo partly drawn) [Example 7, 4-[(6-{3-Azabicyclo[3.1.0]hexan-3-yl}-2-methylpyridin-3-yl)methyl]-N-[(6R)-3-methyl-1H,4H,5H,6H-cyclopenta[c]pyrazol-6-yl]-1H-pyrrole-2-carboxamide], the Ki on Human PKK [1] is 0.7 nM. For the same compound, the IC90 in assay [2] turned out to be 342 nM. The IC50 at human TK1 is over 10000 nM; on Human PKK [3] it was 1 nM.
